# In ChEMBL document CHEMBL5620367, “Discovery of new tetrahydroisoquinolines as potent and selective LSD1 inhibitors for the treatment of MLL-rearranged leukemia” (Eur J Med Chem, 2023):
# Calls of active or inactive are those of the source. The rule behind the calls is not given here.
# How the values were obtained:
# [1] = test system: MV4-11; assay: Induction of apoptosis in human MV4-11 cells assessed as late apoptotic cells at 30 uM incubated for 3 days by Annexin V staining based flow cytometry (reference value: 7.29 %); assay type: functional; conditions: time 3 day
# [2] = test system: MOLM-13; assay: Induction of apoptosis in human MOLM-13 cells assessed as necrotic cells at 100 uM incubated for 3 days by Annexin V staining based flow cytometry (reference value: 1.23 %); assay type: functional; conditions: time 3 day
# [3] = test system: MV4-11; assay: Anti-invasive activity against human MV4-11 cells xenografted in NOD-SCID mouse assessed as reduction in tumor formation in ovarian tissue at 78.7 mg/kg, sc measured after 33 days; assay type: functional, organism-based; conditions: time 33.0 day
# [4] = test system: MV4-11; assay: Induction of apoptosis in human MV4-11 cells assessed as viable cells at 100 uM incubated for 3 days by Annexin V staining based flow cytometry (reference value: 89.63 %); assay type: functional; conditions: MV4-11, 72 h, time 3 day, read-out: Activity
# [5] = test system: MV4-11; assay: Induction of apoptosis in human MV4-11 cells assessed as late apoptotic cells at 10 uM incubated for 3 days by Annexin V staining based flow cytometry (reference value: 7.29 %); assay type: functional; conditions: time 3 day
# [6] = test system: MV4-11; assay: Induction of apoptosis in human MV4-11 cells assessed as early apoptotic cells at 100 uM incubated for 3 days by Annexin V staining based flow cytometry (reference value: […] %); assay type: functional; conditions: time 3 day
# [7] = test system: MV4-11; assay: Induction of cell differentiation in human MV4-11 cells assessed as CD11b level at 100 uM incubated for 3 days by Annexin V staining based flow cytometry (reference value: 8.58 %); assay type: functional; conditions: time 3 day
# [8] = test system: MV4-11; assay: Induction of cell differentiation in human MV4-11 cells assessed as increase in CD11b level upto 400 uM incubated for 7 days […]; assay type: functional, cell-based; conditions: time 7.0 day
# [9] = test system: MOLM-13; assay: Induction of apoptosis in human MOLM-13 cells assessed as late apoptotic cells at 100 uM incubated for 3 days by Annexin V staining based flow cytometry (reference value: 3.29 %); assay type: functional; conditions: time 3 day
# [10] = test system: MV4-11; assay: Antitumor activity against human MV4-11 cells xenografted in NOD-SCID mouse assessed as decrease in leukemic cells in spleen at 50 mg/kg, sc measured after 33 days relative to control; assay type: functional; design: scale not given: the % may be the effect or the level left; conditions: time 33 day
# [11] = Toxicity in NOD-SCID mouse xenografted with human MV4-11 cells assessed as change in fur morphology at 50 to 78.7 mg/kg, sc measured after 33 days; assay type: organism-based; conditions: in vivo, 792 h, dose 50-78.7 mg/kg, time 33 day
# [12] = test system: MOLM-13; assay: Induction of apoptosis in human MOLM-13 cells assessed as early apoptotic cells at 100 uM incubated for 3 days by Annexin V staining based flow cytometry (reference value: 4.94 %); assay type: functional; conditions: time 3 day
# [13] = test system: MV4-11; assay: Cytotoxicity against human MV4-11 cells incubated for 7 days by CCK8 assay; conditions: MV4-11, 168 h
# [14] = test system: MOLM-13; assay: Induction of cell differentiation in human MOLM-13 cells assessed as CD11b level at 30 uM incubated for 3 days by Annexin V staining based flow cytometry (reference value: 13.77 %); assay type: functional; conditions: time 3 day
# [15] = test system: MV4-11; assay: Induction of apoptosis in human MV4-11 cells assessed as early apoptotic cells at 10 uM incubated for 3 days by Annexin V staining based flow cytometry (reference value: […] %); assay type: functional; conditions: time 3 day
# [16] = test system: MOLM-13; assay: Induction of apoptosis in human MOLM-13 cells assessed as late apoptotic cells at 30 uM incubated for 3 days by Annexin V staining based flow cytometry (reference value: 3.29 %); assay type: functional; conditions: time 3 day
# [17] = test system: MV4-11; assay: Induction of cell differentiation in human MV4-11 cells assessed as CD11b level at 30 uM incubated for 3 days by Annexin V staining based flow cytometry (reference value: 8.58 %); assay type: functional; conditions: time 3 day
# [18] = test system: MV4-11; assay: Induction of apoptosis in human MV4-11 cells assessed as necrotic cells at 10 uM incubated for 3 days by Annexin V staining based flow cytometry (reference value: 2.45 %); assay type: functional; conditions: time 3 day
# [19] = test system: MV4-11; assay: Induction of cell differentiation in human MV4-11 cells assessed as increase in CD14 level upto 100 uM incubated for 3 days by Annexin V staining based flow cytometry; assay type: functional; conditions: time 3.0 day
# [20] = test system: MOLM-13; assay: Induction of apoptosis in human MOLM-13 cells assessed as viable cells at 30 uM incubated for 3 days by Annexin V staining based flow cytometry (reference value: 90.54 %); assay type: functional; conditions: MOLM-13, 72 h, time 3 day, read-out: Activity
# [21] = test system: MV4-11; assay: Antitumor activity against human MV4-11 cells xenografted in NOD-SCID mouse assessed as decrease in leukemic cells in blood at 50 mg/kg, sc measured after 33 days relative to control; assay type: functional; design: scale not given: the % may be the effect or the level left; conditions: time 33 day
# [22] = test system: MV4-11; assay: Anti-cancer activity against human MV4-11 cells assessed as reduction in HoxA9 mRNA level upto 100 uM by qRT-PCR analysis; assay type: functional, cell-based
# [23] = test system: MOLM-13; assay: Induction of apoptosis in human MOLM-13 cells assessed as early apoptotic cells at 10 uM incubated for 3 days by Annexin V staining based flow cytometry (reference value: 4.94 %); assay type: functional; conditions: time 3 day
# [24] = test system: MOLM-13; assay: Induction of apoptosis in human MOLM-13 cells assessed as necrotic cells at 10 uM incubated for 3 days by Annexin V staining based flow cytometry (reference value: 1.23 %); assay type: functional; conditions: time 3 day
# [25] = test system: MV4-11; assay: Anti-cancer activity against human MV4-11 cells assessed as reduction in Meis1 mRNA level upto 100 uM by qRT-PCR analysis; assay type: functional, cell-based
# [26] = test system: MOLM-13; assay: Induction of cell differentiation in human MOLM-13 cells assessed as CD11b level at 10 uM incubated for 3 days by Annexin V staining based flow cytometry (reference value: 13.77 %); assay type: functional; conditions: time 3 day
# [27] = test system: MOLM-13; assay: Induction of cell differentiation in human MOLM-13 cells assessed as CD11b level at 100 uM incubated for 3 days by Annexin V staining based flow cytometry (reference value: 13.77 %); assay type: functional; conditions: time 3 day
# [28] = test system: MOLM-13; assay: Anti-cancer activity against human MOLM-13 cells assessed as reduction in HoxA9 mRNA level upto 100 uM by qRT-PCR analysis relative to control; assay type: functional; design: scale not given: the % may be the effect or the level left; conditions: up to 100 µM
compound,measurement,setting,value
O=C(O)C(F)(F)F.O=[N+]([O-])c1ccc(C2NCCc3cc(O)c(O)cc32)cc1 (stereo not drawn),Activity,[1],28.14%
same,Activity,[2],16.41%
same,Activity,[3],Active
same,viability at 100 µM,[4],49.9%
same,Activity,[5],22.73%
same,Activity,[6],9.09%
same,Activity,[7],69.19%
same,Activity,[8],Active
same,Activity,[9],18.07%
same,Activity,[10],32%
same,Activity,[11],Toxic
same,Activity,[12],9.46%
same,IC50,[13],42 µM
same,Activity,[14],90.6%
same,Activity,[15],7.06%
same,Activity,[16],15.99%
same,Activity,[17],34.78%
same,Activity,[18],4.05%
same,Activity,[19],Active
same,viability at 30 µM,[20],61.5%
same,Activity,[21],35%
same,Activity,[22],Active
same,Activity,[23],7.17%
same,Activity,[24],6.32%
same,Activity,[25],Active
same,Activity,[26],29.35%
same,Activity,[27],93.75%
same,Activity,[28],~70%
